Results taken from patent US9260382B2, “Methods of reducing virulence in bacteria” (priority 2010, dated 2016).

System: hrpA promoter (T3SS)
Experiment: hrpA promoter-probe phrpA in Erwinia amylovora 273, flow cytometry
Assay type: cell-based
Conditions: Ea273 (phrpA), HIM + 100 μM compound
Procedure: Wild-type Erwinia amylovora 273 was used in this study. The promoter-probe plasmid phrpA was constructed as follows. The hrpA promoter region of Erwinia amylovora 273 was amplified and cloned into pPROBE-NT to produce PhrpA. Plasmid PhrpA was electroporated into Erwinia amylovora 273. Expression of hrpA was analyzed using a FACS Calibur flow cytometer (BD Biosciences, CA). Wild-type Erwinia amylovora 273 containing phrpA was cultured in a hrp-inducing medium (HIM) containing dimethyl sulfoxide (DMSO; solvent of chemical compounds), or HIM supplemented with 100 μM of each compound, and promoter activity was assessed at 6 h and 9 h by measuring GFP intensity using flow cytometry (Table 19).

| Compound | Avg MFI ± SD, hrpA expression (6 h) | Avg MFI ± SD, hrpA expression (9 h) |
| --- | --- | --- |
| O=C(/C=C/c1cccc(Br)c1)NO [Compound 151, trans-3-Bromocinnamohydroxamic acid] | 6.3 ± 1.2 | 3.9 ± 1.2 |
| O=C(O)/C=C/c1ccc(O)c(O)c1 [Compound 003, 3,4-Dihydroxycinnamic acid] | 783.4 ± 80.2 | 787.3 ± 25.2 |
| O=C(/C=C/c1ccccc1O)NO [Compound 129, trans-2-Hydroxycinnamohydroxamic acid] | 187.9 ± 1.2 | 181.0 ± 0.7 |
| COc1ccccc1/C=C/C(=O)O [Compound 015, trans-2-Methoxycinnamic acid] | 342.6 ± 7.0 | 255.1 ± 1.7 |
| O=C(/C=C/c1ccc(Cl)cc1)NO [Compound 148, trans-4-Chlorocinnamohydroxamic acid] | 22.5 ± 3.7 | 21.8 ± 25.2 |
| O=C(CCc1ccccc1)NO [Compound 139, 3-Phenylpropionohydroxamic acid] | 306.3 ± 11.9 | 286.3 ± 10.0 |
| O=C(O)/C=C/c1ccc(C(=O)Cc2ccccc2)cc1 [Compound 164, trans-4-(Benzylcarbonyl)cinnamic acid] | 155.7 ± 22.2 | 116.4 ± 6.7 |
| Cc1ccc(/C=C/C(=O)NO)cc1 [Compound 142, trans-4-Methylcinnamohydroxamic acid] | 126.2 ± 5.6 | 106.0 ± 13.6 |
| O=C(O)/C=C/c1ccc([N+](=O)[O-])cc1 [Compound 028, trans-4-Nitrocinnamic acid] | 14.4 ± 16.9 | 4.0 ± 0.3 |
| O=C(/C=C/c1cccs1)NO [Compound 161, trans-3-(2-Thienyl)acrylhydroxamic acid] | 132.4 ± 13.2 | 145.0 ± 11.7 |
| O=C(/C=C/c1ccc([N+](=O)[O-])cc1)NO [Compound 155, trans-4-Nitrocinnamohydroxamic acid] | 108.4 ± 8.5 | 132.5 ± 2.6 |
| NC(=O)/C=C/c1ccccc1 [Compound 031, trans-Cinnamamide] | 98.0 ± 18.4 | 88.1 ± 4.6 |
| Cc1ccccc1/C=C/C(=O)O [Compound 018, trans-2-Methylcinnamic acid] | 303.8 ± 8.7 | 262.5 ± 9.3 |
| O=C(O)CCc1ccccc1 [Compound 008, Hydrocinnamic acid] | 395.9 ± 16.0 | 342.0 ± 11.7 |
| O=C(COc1ccccc1)NO [Compound 143, 2-Phenoxyacetohydroxamic acid] | 228.7 ± 4.6 | 178.5 ± 27.1 |
| O=C(/C=C/c1cccc(F)c1)NO [Compound 153, trans-3-Fluorocinnamohydroxamic acid] | 177.1 ± 11.9 | 110.6 ± 3.2 |
| O=C(/C=C/c1ccccc1F)NO [Compound 154, trans-2-Fluorocinnamohydroxamic acid] | 111.4 ± 15.1 | 77.8 ± 1.3 |
| O=C(O)c1ccc(O)cc1 [Compound 144, 4-Hydroxybenzoic acid] | 434.4 ± 22.1 | 424.7 ± 24.8 |
| O=C(O)/C=C/c1c[nH]cn1 [Compound 014, trans-3-(4-Imidazolyl)acrylic acid] | 874.6 ± 23.1 | 839.2 ± 17.6 |
| O=C(O)/C=C/c1ccc2ccccc2c1 [Compound 035, 3-(2-naphthyl) acrylic acid] | 178.9 ± 9.7 | 89.0 ± 6.2 |
| COc1cccc(/C=C/C(=O)O)c1 [Compound 016, trans-3-Methoxycinnamic acid] | 265.3 ± 24.4 | 198.5 ± 20.0 |
| O=C(O)C#Cc1ccccc1 [Compound 136, Phenylpropiolic acid] | 261.7 ± 1.0 | 307.0 ± 9.3 |
| O=C(O)COc1ccccc1 [Compound 009, Phenoxyacetic acid] | 342.7 ± 24.8 | 269.9 ± 15.2 |
| NNC(=O)/C=C/c1ccc(O)cc1 [Compound 133, trans-3-(4-Hydroxyphenyl)acrylohydrazid] | 1716.5 ± 33.1 | 2780.9 ± 58.5 |
| COC(=O)/C=C/c1ccccc1 [Compound 030, Methyl trans-cinnamate] | 674.8 ± 252.1 | 668.5 ± 31.2 |
| COc1cccc(/C=C/C(=O)NO)c1 [Compound 158, trans-3-Methoxycinnamohydroxamic acid] | 216.2 ± 12.5 | 250.6 ± 13.9 |
| COc1ccc(/C=C/C(=O)O)cc1 [Compound 017, trans-4-Methoxycinnamic acid] | 132.5 ± 5.5 | 76.4 ± 2.7 |
| O=C(O)c1cccc(O)c1 [Compound 145, 3-Hydroxybenzoic acid] | 559.4 ± 23.6 | 529.9 ± 32.0 |
